We go through two molecules from patent US11426367B2, “Methods of treating substance abuse” (Perception Neuroscience, Inc., priority 2018, dated 2022).

SMILES strings stand for the structures.

For one series, the system named is DEX-treated mice. The series can be described thus: Tail suspension test (TST), neonatal dexamethasone exposure model of depression. The format is in vivo. Conditions: juvenile DEX-treated mice, 10 mg/kg i.p. single injection. On the procedure: A new animal model of depression was prepared by exposing mice neonatally to dexamethasone (hereinafter abbreviated as DEX). […] The mouse model was prepared and reported only recently by the inventors of the present application and their collaborators (Non Patent Literature 18). […] Further, alterations were found in levels of amino acids (glutamate, glutamine, glycine, D-serine, and L-serine) in mouse brains after the neonatal DEX exposure (Non Patent Literature 18). Those amino acids are known to be associated with NMDA receptor mediated neurotransmission. Thus, it is conceivable that alterations in glutamatergic transmission via the NMDA receptor after the neonatal DEX exposure may be involved in the depression-like behavior in the juvenile mice and the adult mice (Non Patent Literature 18).
The preparation of the animal model of depression and the administration of the agent were specifically performed as described below (FIG. 2A). Male and female ICR mice (9-week-old, Japan SLC, Inc., Hamamatsu, Japan) were used. The mice were given free access to water and feed. A breeding procedure consisted of housing three to four females with one male, for 14 days. On the final day of this period, the females were placed in isolation and checked daily around the expected delivery day. The day of birth was defined as day 0. The mice were injected intraperitoneally with DEX (Wako Pure Chemical Industries, Ltd., Tokyo, Japan) dissolved in saline on day 1, day 2, and day 3 at doses of 0.5 mg/kg body weight, 0.3 mg/kg body weight, and 0.1 mg/kg body weight, respectively. In addition, normal controls were injected with equal volumes (10 ml/kg) of saline.
The antidepressant effects of the agent were investigated for juvenile mice by behavioral tests such as the TST, the PST, the LMT, and a 1% sucrose preference test (SPT) (FIG. 2A). The TST and the PST were performed twice, i.e., the day (27 hours and 29 hours, respectively) and 7 days after the injection of ketamine, and the LMT and the SPT were performed on the day and 2 days after the injection of ketamine. The TST was performed as described below. First, the mice were taken out from cages, and then a small piece of an adhesive tape was bonded onto a portion approximately 2 cm away from the tip of the tail of the mice. […] The immobility time of each mouse was recorded for 10 minutes. […] The immobility time was calculated as a value obtained by subtracting active time from total time, using the analysis software of the apparatus. Cumulative immobility time was recorded over 6 minutes during a test period. […] The locomotor activity of the mice was counted with SCANET MV-40, and the cumulative exercise of the mice was recorded for 60 minutes. […]

In series [1] the test system is morphine withdrawal signs in rats. The series can be described thus: Naloxone-precipitated withdrawal from subchronic morphine. In kind it is in vivo. Conditions: 10 and 20 mg/kg i.p. before naloxone 1 mg/kg SC, morphine 10 mg/kg SC b.i.d. The protocol:
Forty (40) male Wistar rats served as test subjects in this study. Animals were pair housed with unrestricted access to rodent chow and water (SOP ROD.03.01, SOP ROD.04.01, SOP ROD.18). […] All experimental activity occurring during the animals' light cycle. All animal use procedures were performed in accordance with the principles of the Canadian Council on Animal Care (CCAC).
Forty (40) male Wistar rats were assigned to 5 groups of N=8 rats per group. Group A was dosed with saline vehicle (Sal; subcutaneous (SC) route) twice daily (approx. 08:00±1 h and 18:00±1 h) for 12 days. […] This treatment regimen was designed to induce opioid dependence (Erami et al., 2012). […] On days 9 and 12, rats were tested for naloxone precipitated withdrawal. According to a cross-over design (see Table 4: Treatment Groups), all rats in each group received either acute saline, or naloxone hydrochloride (1 mg/kg; dose volume 2 ml/kg) injection by the SC route, 5 minutes prior to behavioral testing. […] Lofexidine doses are based on literature values (e.g. Shearman et al., 1979). Immediately after vehicle or naloxone injection, rats were transferred to activity chambers for 30 minutes where the animals were visually assessed for somatic signs associated with opioid withdrawal (e.g. writhes, chews, ptosis, WDS, shakes, tremor, penile grooming, body weight change; see Higgins and Sellers, 1994). Simultaneously, the activity pattern (distance travelled, rearing) of each rat was automatically recorded.
Locomotor activity. Spontaneous activity in the rats was measured with the automated Med Associates activity test chamber for 30 minutes with 10-minute time bins. The tracking arena was 17″W×17″L×12″H, sensor bars are secured 1″ above the floor to track distance travelled, and a second set of sensor bars are placed ˜5″ above the floor to measure vertical movement and rearing activity. The parameters set on the tracking software were as follows: resolution—50 milliseconds (ms), box size—4 beams, resting delay—500 ms, and ambulatory trigger—2 (SOP ROD.25). […]

Series [2] has as its system cerebral metabolic rates of glucose. Conditions: healthy volunteers, Non Patent Literature 13, cited from earlier work; for cerebral metabolic rates of glucose (CMRglu), PET: S(+)-ketamine i.v. 15 mg for 5 min then 0.014 to 0.02 mg/kg/min for 53 min, R(−)-ketamine equimolar doses.
Series [3] concerns tolerance to effects of ethanol. The experiment in a line: Tolerance to ethanol, grip strength. Conditions: for tolerance to the effect of ethanol on grip strength/body weight (motor-impairment): rats, 3 mg/kg given with ethanol (2.3 and 1.7) on day 1, tested day 2, 30 min post ethanol, 3 mg/kg.
The test system of series [4] is medial forebrain bundle self-stimulation in rats. The series can be described thus: Intracranial self-stimulation (ICSS), frequency-rate procedure. Conditions: for ICSS, anhedonia: doses 10, 30 mg/kg, Present study; for ICSS frequency-rate response curve: rats, 3, 10 or 30 mg/kg i.p. 2 hours prior to test session, vs saline vehicle.
The subject of another series is patients with depression. Conditions: cited from earlier work.
The mark [5] stands for this setting: 3 mg/kg i.p. 2 hours prior to test session, 10 rats.
Setting [6] is: 10 mg/kg i.p. 2 hours prior to test session, 10 rats.
[7] abbreviates: 30 mg/kg i.p. 2 hours prior to test session, 10 rats.
[8] abbreviates: baseline session before dosing on the 3 mg/kg test day, 10 rats.
Setting [9] is: baseline session before dosing on the 10 mg/kg test day, 10 rats.
Where [10] appears, read: baseline session before dosing on the 30 mg/kg test day, 10 rats.

On to `CN[C@@]1(c2ccccc2Cl)CCCCC1=O.Cl` [R(−)-ketamine], for which the “immobility time in the TST” value with DEX-treated mice (27 hours after injection) is “markedly reduced the immobility time”; in the series on DEX-treated mice (7 days after injection) it was “significantly reduced the immobility time”. The “overall morphine withdrawal scores (naloxone-precipitated withdrawal signs)” value in series [1] was “dose-dependently attenuated overall morphine withdrawal scores”; in series [1] (listed as R-ketamine), “significantly attenuated the naloxone-induced withdrawal signs”. Further, the psychotic symptoms entry in series [2] (doses equimolar to psychotomimetic doses of S(+)-ketamine) is recorded as “did not produce psychotic symptoms”. In addition, the “cerebral metabolic rates of glucose (CMRglu), PET” value in series [2] is given as “tended to decrease CMRglu”. In addition, in series [3] (grip strength, Present study), the “Ethanol Tolerance, dose blocking development of tolerance” value is recorded as 3 - grip strength mg/kg. In addition, the “tolerance to the effect of ethanol on grip strength/body weight (motor-impairment)” value in series [3] was “tolerance was significantly diminished”; in series [3] (listed as R-ketamine), “blocked”. The “M50, Test, mean log M50 frequency (SEM)” value in series [4] (setting [5]) was 1.98 (0.01) log/Hz; in series [4] (setting [6]), 2.02 (0.02) log/Hz; in series [4] (setting [7]), 1.99 (0.02) log/Hz. Besides, the “Threshold (T0), Test, mean log T0 frequency (SEM)” value is given as 1.88 (0.02) log/Hz in series [4] (setting [5]), 1.93 (0.03) log/Hz in series [4] (setting [6]) and 1.90 (0.02) log/Hz in series [4] (setting [7]). The “M50, Baseline, mean log M50 frequency (SEM)” value in series [4] (setting [8]) is 2.00 (0.02) log/Hz; in series [4] (setting [9]) it was 2.00 (0.02) log/Hz; in series [4] (setting [10]), 1.98 (0.02) log/Hz. The figures for the “Threshold (T0), Baseline, mean log T0 frequency (SEM)” value in series [4] (setting [8]), in series [4] (setting [9]) and in series [4] (setting [10]) were 1.91 (0.02) log/Hz, 1.91 (0.03) log/Hz and 1.89 (0.02) log/Hz, respectively. In addition, the “ICSS, anhedonia” value in series [4] is on record as 10, 30 - no anhedonia. The “ICSS frequency-rate response curve” value in series [4] is listed as “did not significantly alter behavior of rats”.

`CN[C@]1(c2ccccc2Cl)CCCCC1=O` [S(+)-ketamine]: the entries for the “immobility time in the TST” value in the series on DEX-treated mice (27 hours after injection) and with DEX-treated mice (7 days after injection) were “markedly reduced the immobility time” and “did not reduce the immobility time”, respectively. The “antidepressant effects compared with RS(+/−)-ketamine (0.5 mg/kg, i.v.)” value in the series with patients with depression (0.25 mg/kg i.v., treatment-resistant patients with MDD, case report, Non Patent Literature 14) is reported as “weaker”. Besides, in the series on patients with depression (oral, Non Patent Literatures 15 and 16), the “effective oral doses in patients with depression” value is on record as 1.25 mg/kg. The “cerebral metabolic rates of glucose (CMRglu), PET” value in series [2] is listed as “increased cerebral metabolic rates of glucose”. For the same molecule, the “M50, Test, mean log M50 frequency (SEM)” value worked out at 1.98 log/Hz in series [4] (setting [5]) and 2.07 log/Hz in series [4] (setting [7]). Also, the results for the “Threshold (T0), Test, mean log T0 frequency (SEM)” value in series [4] (setting [5]), in series [4] (setting [6]) and in series [4] (setting [7]) were 1.88 log/Hz, 1.90 log/Hz and 1.95 log/Hz, respectively. Further, the “M50, Test, mean log M50 frequency” value in series [4] (15 mg/kg (so in the source) i.p., 10 rats) was 2.00 log/Hz. The “M50, Baseline, mean log M50 frequency (SEM)” value in series [4] (setting [8]) is recorded as 1.97 (0.02) log/Hz; in series [4] (baseline session before dosing on the 15 mg/kg (so in the source) test day, 10 rats) it was 1.97 (0.01) log/Hz; in series [4] (setting [10]), 1.98 (0.01) log/Hz. The “Threshold (T0), Baseline, mean log T0 frequency (SEM)” value is given as 1.86 (0.02) log/Hz in series [4] (setting [8]), 1.87 (0.02) log/Hz in series [4] (setting [9]) and 1.87 (0.02) log/Hz in series [4] (setting [10]). In addition, in series [4], the “ICSS, anhedonia” value is recorded as 10, 30 anhedonia. Also, the “ICSS frequency-rate response curve” value in series [4] is listed as “significant downward shift in the stimulation-frequency curve”.
